Drawing on patent US20100298138A1, “Aminoazoline and Urea Derivatives for Combating Animal Pests” (BASF SE, priority 2007, published 2010), this text covers mortality for four molecules.

A value given as a limit tells only on which side of the number the result lay.

Series [1] deals with Cotton Aphid (Aphis gossypii). The series can be described thus: whole plant or invertebrate. The conditions noted are these: 120 h. Type of series: in vivo. From the text: • 2. Biological Examples II.1 Cotton Aphid (Aphis gossypii), Mixed Life Stages
The active compounds were formulated in 50:50 acetone: water and 100 ppm Kinetic® surfactant.
Cotton plants at the cotyledon stage (one plant per pot) were infested by placing a heavily infested leaf from the main colony on top of each cotyledon. The aphids were allowed to transfer to the host plant overnight, and the leaf used to transfer the aphids was removed. The cotyledons were dipped in the test solution and allowed to dry. After 5 days, mortality counts were made.

Series [2] concerns Silverleaf Whitefly (Bemisia argentifolii). Description: whole plant or invertebrate. Type of series: in vivo. The conditions noted are these: in Gossypium hirsutum, 72 h, 3 days after treatment, in comparison with untreated controls. Here is the method: II.4 Silverleaf Whitefly (Bemisia argentifolii), Adult
The active compounds were formulated in 50:50 acetone:water and 100 ppm Kinetic® surfactant.
Selected cotton plants were grown to the cotyledon state (one plant per pot). The cotyledons were dipped into the test solution to provide complete coverage of the foliage and placed in a well-vented area to dry. Each pot with treated seedling was placed in a plastic cup and 10 to 12 whitefly adults (approximately 3-5 day old) were introduced. The insects were collected using an aspirator and an 0.6 cm, non-toxic Tygon® tubing (R-3603) connected to a barrier pipette tip. The tip, containing the collected insects, was then gently inserted into the soil containing the treated plant, allowing insects to crawl out of the tip to reach the foliage for feeding. The cups were covered with a reusable screened lid (150 micron mesh polyester screen PeCap from Tetko Inc). Test plants were maintained in the holding room at about 25° C. and 20-40% relative humidity for 3 days avoiding direct exposure to the fluorescent light (24 hour photoperiod) to prevent trapping of heat inside the cup. Mortality was assessed 3 days after treatment of the plants.

Series [3] has as its system Brown Planthopper (Nilaparvata lugens). The series can be described thus: whole plant or invertebrate. Format: in vivo. The conditions noted are these: in Oryza sativa, assessed 24, 48 and 72 hours after treatment, in comparison with untreated controls. Here is the method: II.5 Brown Planthopper (Nilaparvata lugens)
The active compounds were formulated as a 20:80 acetone:water solution. Surfactant (Alkamuls EL 620) was added at the rate of 0.1% (vol/vol).
Potted rice plants of 3-4 weeks of age are sprayed with 10 ml of the test solution using air driven hand atomizer (Devillbis atomizer) at 1.7 bar. The treated plants are allowed to dry for about 1 hour and covered with Mylar cages. The plants are inoculated with 10 adults of the specie (5 male and 5 females) and kept at 25-27° C. and 50-60% humidity for 3 days. Mortality is assed after 24, 48 and 72 hours after treatment. Dead insects are usually found in the water surface. Each treatment is replicated once.

The test system of series [4] is Mediterranean fruitfly (Ceratitis capitata). The conditions noted are these: eggs treated with 2500 ppm; 6 days. The protocol:
II.9 Activity against Mediterranean fruitfly (Ceratitis capitata)
50 to 80 eggs were placed into microtiterplates filled with 0.5% agar-agar and 14% diet in water. The eggs were sprayed with 5 μl of the test solution, the plates were sealed with pierced foils and kept at 27-29° C. and 75-85% humidity under fluorescent light for 6 days. Mortality was assessed on the basis of the agility of the hatched larvae. Tests were replicated 2 times.

With `Clc1cccc2c1CC(NC1=NCCS1)CC2` (centres unmarked) [compound 2a, (8-Chloro-1,2,3,4-tetrahydro-naphthalen-2-yl)-(4,5-dihydro-thiazol-2-yl)-amine], the mortality at 300 ppm in series [1] was ≥ 50%.
Take `COc1ccc2c(c1)CC(NC(=S)NCCOC(=O)c1ccccc1)CC2` (centres unmarked) [compound 16, Benzoic acid 2-[3-(7-methoxy-1,2,3,4-tetrahydro-naphthalen-2-yl)-thioureido]-ethyl ester]: the mortality at 300 ppm in series [2] is ≥ 50%.
Turning to `COc1ccc2c(c1)CC(NC(=S)NCCOC(C)=O)CC2` (centres unmarked) [compound 17, Acetic acid 2-[3-(7-methoxy-1,2,3,4-tetrahydro-naphthalen-2-yl)-thioureido]-ethyl ester], the mortality at 300 ppm in series [3] and in series [2] was ≥ 50% each time.
Regarding `COc1ccc2c(c1)CC(NC(=S)NCCO)CC2` (centres unmarked) [compound 18], in series [4], the mortality entry is recorded as “at least 50%”.

A word on the mortality: it is the percentage killed.
